Measurements reported in the NIST ThermoML archive (doi:10.1021/je030133a).
Several values for one entry are separate records, joined by “and”; a condition that tells them apart may be missing. Equal values may be shown once. ± gives the expanded uncertainty stated by the source.

Assays:
[1] = 101.3 kPa, Liquid
[2] = xn = mol fraction of the nth substance listed; details: 101.3 kPa, Liquid

## C1COCCO1 [1,4-dioxane]
[1]; 303.15 K
  mass density: 1022.3 ± 2.7 kg/m3
  viscosity: 1.099 ± 0.027 mPa·s and 1.098 ± 0.054 mPa·s
[1]; 308.15 K
  mass density: 1016.7 ± 2.8 kg/m3
  viscosity: 1.03 ± 0.025 mPa·s
[1]; 313.15 K
  mass density: 1012 ± 2.9 kg/m3
  viscosity: 0.9575 ± 0.024 mPa·s

## C1COCCO1 [1,4-dioxane] + CCCCO
[2]; 303.15 K, x1 = 0.1066
  mass density: 826.5 ± 2.1 kg/m3
  viscosity: 2.011 ± 0.093 mPa·s
[2]; 303.15 K, x1 = 0.2116
  mass density: 847.6 ± 2.2 kg/m3
  viscosity: 1.635 ± 0.077 mPa·s
[2]; 303.15 K, x1 = 0.3151
  mass density: 868.6 ± 2.3 kg/m3
  viscosity: 1.37 ± 0.065 mPa·s
[2]; 303.15 K, x1 = 0.4171
  mass density: 889.9 ± 2.3 kg/m3
  viscosity: 1.243 ± 0.06 mPa·s
[2]; 303.15 K, x1 = 0.5177
  mass density: 911.3 ± 2.4 kg/m3
  viscosity: 1.164 ± 0.057 mPa·s
[2]; 303.15 K, x1 = 0.6169
  mass density: 932.8 ± 2.5 kg/m3
  viscosity: 1.093 ± 0.053 mPa·s
[2]; 303.15 K, x1 = 0.6659
  mass density: 943.6 ± 2.5 kg/m3
  viscosity: 1.064 ± 0.052 mPa·s
[2]; 303.15 K, x1 = 0.7146
  mass density: 954.6 ± 2.5 kg/m3
  viscosity: 1.038 ± 0.051 mPa·s
[2]; 303.15 K, x1 = 0.763
  mass density: 965.6 ± 2.6 kg/m3
  viscosity: 1.016 ± 0.05 mPa·s
[2]; 303.15 K, x1 = 0.8111
  mass density: 976.7 ± 2.6 kg/m3
  viscosity: 1.015 ± 0.05 mPa·s
[2]; 303.15 K, x1 = 0.8588
  mass density: 987.9 ± 2.6 kg/m3
  viscosity: 1.031 ± 0.051 mPa·s
[2]; 303.15 K, x1 = 0.9062
  mass density: 999.2 ± 2.7 kg/m3
  viscosity: 1.065 ± 0.052 mPa·s
[2]; 303.15 K, x1 = 1
  mass density: 1022.3 ± 2.7 kg/m3
  viscosity: 1.098 ± 0.054 mPa·s
[2]; 308.15 K, x1 = 0.1066
  mass density: 818.4 ± 2.2 kg/m3
  viscosity: 1.683 ± 0.079 mPa·s
[2]; 308.15 K, x1 = 0.2116
  mass density: 839.9 ± 2.3 kg/m3
  viscosity: 1.362 ± 0.065 mPa·s
[2]; 308.15 K, x1 = 0.3151
  mass density: 861.3 ± 2.4 kg/m3
  viscosity: 1.165 ± 0.057 mPa·s
[2]; 308.15 K, x1 = 0.4171
  mass density: 882.7 ± 2.4 kg/m3
  viscosity: 1.081 ± 0.053 mPa·s
[2]; 308.15 K, x1 = 0.5177
  mass density: 904.3 ± 2.5 kg/m3
  viscosity: 1.032 ± 0.051 mPa·s
[2]; 308.15 K, x1 = 0.6169
  mass density: 926.2 ± 2.6 kg/m3
  viscosity: 1.007 ± 0.05 mPa·s
[2]; 308.15 K, x1 = 0.6659
  mass density: 937.3 ± 2.6 kg/m3
  viscosity: 0.9903 ± 0.049 mPa·s
[2]; 308.15 K, x1 = 0.7146
  mass density: 948.4 ± 2.6 kg/m3
  viscosity: 0.9768 ± 0.049 mPa·s
[2]; 308.15 K, x1 = 0.763
  mass density: 959.6 ± 2.7 kg/m3
  viscosity: 0.9543 ± 0.048 mPa·s
[2]; 308.15 K, x1 = 0.8111
  mass density: 971 ± 2.7 kg/m3
  viscosity: 0.9484 ± 0.047 mPa·s
[2]; 308.15 K, x1 = 0.8588
  mass density: 982.3 ± 2.7 kg/m3
  viscosity: 0.9507 ± 0.047 mPa·s
[2]; 308.15 K, x1 = 0.9062
  mass density: 993.6 ± 2.8 kg/m3
  viscosity: 0.9793 ± 0.049 mPa·s
[2]; 308.15 K, x1 = 1
  mass density: 1016.7 ± 2.8 kg/m3
  viscosity: 1.03 ± 0.051 mPa·s
[2]; 313.15 K, x1 = 0.1066
  mass density: 816.8 ± 2.3 kg/m3
  viscosity: 1.522 ± 0.072 mPa·s
[2]; 313.15 K, x1 = 0.2116
  mass density: 837.9 ± 2.4 kg/m3
  viscosity: 1.281 ± 0.062 mPa·s
[2]; 313.15 K, x1 = 0.3151
  mass density: 859 ± 2.5 kg/m3
  viscosity: 1.094 ± 0.054 mPa·s
[2]; 313.15 K, x1 = 0.4171
  mass density: 880.2 ± 2.5 kg/m3
  viscosity: 0.9963 ± 0.049 mPa·s
[2]; 313.15 K, x1 = 0.5177
  mass density: 901.5 ± 2.6 kg/m3
  viscosity: 0.9565 ± 0.048 mPa·s
[2]; 313.15 K, x1 = 0.6169
  mass density: 923.1 ± 2.7 kg/m3
  viscosity: 0.9426 ± 0.047 mPa·s
[2]; 313.15 K, x1 = 0.6659
  mass density: 934 ± 2.7 kg/m3
  viscosity: 0.9289 ± 0.046 mPa·s
[2]; 313.15 K, x1 = 0.7146
  mass density: 945.2 ± 2.7 kg/m3
  viscosity: 0.919 ± 0.046 mPa·s
[2]; 313.15 K, x1 = 0.763
  mass density: 956.3 ± 2.8 kg/m3
  viscosity: 0.9043 ± 0.045 mPa·s
[2]; 313.15 K, x1 = 0.8111
  mass density: 967.4 ± 2.8 kg/m3
  viscosity: 0.9234 ± 0.046 mPa·s
[2]; 313.15 K, x1 = 0.8588
  mass density: 978.6 ± 2.8 kg/m3
  viscosity: 0.9384 ± 0.047 mPa·s
[2]; 313.15 K, x1 = 0.9062
  mass density: 989.7 ± 2.9 kg/m3
  viscosity: 0.9315 ± 0.046 mPa·s
[2]; 313.15 K, x1 = 1
  mass density: 1012 ± 2.9 kg/m3
  viscosity: 0.9575 ± 0.048 mPa·s
